Assay results reported in US20240383915A1, “OXAZEPINE COMPOUNDS AND USES THEREOF IN THE TREATMENT OF CANCER” (Genentech, Inc., priority 2021, published 2024).

Experiments:
KRas = KRas (Homo sapiens (Human), UniProt P01116); assay: KRas GDP HTRF (BODIPY-GDP exchange TR-FRET); type: biochemical
Experimental: KRAS Biochemical Assay—BODIPY-GDP Exchange TR-FRET. Biochemical compound potencies were assessed by evaluating inhibition of SOS1-mediated nucleotide exchange in KRAS G12D. The SOS1-promoted exchange of fluorescently-labeled GDP (BODIPY-GDP) was monitored by time-resolved fluorescence resonance energy transfer (TR-FRET). Compounds solubilized in DMSO were dispensed as concentration series into 384-well white assay plates. […] The reaction was initiated with the addition of 5 μL of 3 nM recombinant human SOS1 and 300 nM BODIPY-GDP in assay buffer. After a 60-minute incubation, the fluorescence was measured with excitation at 337 nm and emission at 490 and 520 nm. The TR-FRET ratio was determined as the fluorescence at 520 nm divided by the fluorescence at 490 nm multiplied by 10,000. […] The normalized TR-FRET results were plotted against compound concentration, and the data fit to a 4-parameter Hill equation to determine the IC50 values.

KRas(G12V) = KRas(G12V) (Homo sapiens (Human), UniProt P01116, G12V); assay: KRas(G12V) GDP HTRF (BODIPY-GDP exchange TR-FRET); type: biochemical
Sequence of KRas(G12V) (P01116-2 other isoform, or with tags, fused parts or gaps G12V): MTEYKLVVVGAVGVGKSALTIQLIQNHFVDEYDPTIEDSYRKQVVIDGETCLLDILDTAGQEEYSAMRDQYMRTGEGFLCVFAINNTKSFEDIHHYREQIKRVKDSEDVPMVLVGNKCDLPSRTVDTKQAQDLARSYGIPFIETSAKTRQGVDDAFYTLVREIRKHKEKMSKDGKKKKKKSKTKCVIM

Sequence of KRas (P01116-2 other isoform, or with tags, fused parts or gaps): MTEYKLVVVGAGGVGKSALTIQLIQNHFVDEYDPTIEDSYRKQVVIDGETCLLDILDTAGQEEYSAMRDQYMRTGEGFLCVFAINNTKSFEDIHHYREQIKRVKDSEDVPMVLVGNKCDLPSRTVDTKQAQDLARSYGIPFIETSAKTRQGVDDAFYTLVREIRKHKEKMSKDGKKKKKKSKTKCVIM

IC50 (KRas)	IC50 (KRas(G12V))	Structure (SMILES)
0.07 nM	0.06 nM	Cc1cc(N)nc(-c2c(Cl)c3c4c(nc(OC[C@@]56CCCN5C[C@H](F)C6)nc4c2F)N([C@H](C)c2cc(F)cnc2N)CCO3)c1C(F)(F)F (atropisomer, axis not shown; (aS)) [Example 130a, 6-((R)-4-((R)-1-(2-amino-5-fluoropyridin-3-yl)ethyl)-8-chloro-10-fluoro-2-(((2R,7aS)-2-fluorotetrahydro-1H-pyrrolizin-7a(5H)-yl)methoxy)-5,6-dihydro-4H-[1,4]oxazepino[5,6,7-de]quinazolin-9-yl)-4-methyl-5-(trifluoromethyl)pyridin-2-amine]
0.1 nM	0.08 nM	Cc1cc(N)nc(-c2c(Cl)c3c4c(nc(OC[C@@H]5CC[C@H]6COCCN65)nc4c2F)N([C@H](C)c2ccnnc2N)CCO3)c1C(F)(F)F (atropisomer, axis not shown; (aS)) [Example 175, 4-((R)-1-((R)-9-(6-amino-4-methyl-3-(trifluoromethyl)pyridin-2-yl)-8-chloro-10-fluoro-2-(((6S,8aS)-hexahydro-1H-pyrrolo[2,1-c][1,4]oxazin-6-yl)methoxy)-5,6-dihydro-4H-[1,4]oxazepino[5,6,7-de]quinazolin-4-yl)ethyl)pyridazin-3-amine]
6500 nM	1200 nM	Cc1cc(N)nc(-c2c(Cl)c3c4c(nc(OC[C@@]56CCCN5C[C@H](F)C6)nc4c2F)N(C)CCO3)c1C(F)(F)F (single isomer, unassigned) [Example 41b]
0.295 nM	0.11 nM	Cc1cc(N)nc(-c2c(Cl)c3c4c(nc(OC[C@@H]5CC[C@H]6COCCN65)nc4c2F)N([C@H](C)c2cncc(N)c2)CCO3)c1C(F)(F)F (single isomer, unassigned) [Example 69a]
8.3 nM	0.49 nM	Cc1cc(N)nc(-c2c(Cl)c3c4c(nc(OC[C@@H]5CC(F)(F)CN5C)nc4c2F)N([C@H](C)c2cncc(N)c2)CCO3)c1C(F)(F)F (single isomer, unassigned) [Example 70a]
830 nM	370 nM	Cc1cc(N)nc(-c2c(Cl)c3c4c(nc(OC[C@@]56CCN5CC(F)(F)C6)nc4c2F)N([C@H](C)c2nccnc2N)CCO3)c1C(F)(F)F (single isomer, unassigned) [Example 162c]
896 nM	410 nM	Cc1cc(N)nc(-c2c(Cl)c3c4c(nc(OC[C@@]56CCN5CC(F)(F)C6)nc4c2F)N([C@H](C)c2nccnc2N)CCO3)c1C(F)(F)F (single isomer, unassigned) [Example 162d]
2900 nM	540 nM	Cc1cc(N)nc(-c2cc3ncnc4c3c(c2Cl)OCCN4Cc2cncc(N)c2)c1C(F)(F)F [Example 3, 6-(4-((5-aminopyridin-3-yl)methyl)-8-chloro-5,6-dihydro-4H-[1,4]oxazepino[5,6,7-de]quinazolin-9-yl)-4-methyl-5-(trifluoromethyl)pyridin-2-amine]
10000 nM	1400 nM	Cc1cc(N)nc(-c2cc3ncnc4c3c(c2Cl)OCCN4[C@@H](C)c2cncc(N)c2)c1C(F)(F)F [Example 4, (S)-6-(4-(1-(5-aminopyridin-3-yl)ethyl)-8-chloro-5,6-dihydro-4H-[1,4]oxazepino[5,6,7-de]quinazolin-9-yl)-4-methyl-5-(trifluoromethyl)pyridin-2-amine]
6300 nM	1300 nM	CNc1cncc(CN2CCOc3c(Cl)c(-c4nc(N)cc(C)c4C(F)(F)F)cc4ncnc2c34)c1 [Example 6, 6-(8-chloro-4-((5-(methylamino)pyridin-3-yl)methyl)-5,6-dihydro-4H-[1,4]oxazepino[5,6,7-de]quinazolin-9-yl)-4-methyl-5-(trifluoromethyl)pyridin-2-amine]
2300 nM	420 nM	Cc1cc(N)nc(-c2cc3nc(OC[C@]45CCCN4CC(F)(F)C5)nc4c3c(c2Cl)OCCN4C)c1C(F)(F)F [Example 7, (R)-6-(8-chloro-2-((2,2-difluorotetrahydro-1H-pyrrolizin-7a(5H)-yl)methoxy)-4-methyl-5,6-dihydro-4H-[1,4]oxazepino[5,6,7-de]quinazolin-9-yl)-4-methyl-5-(trifluoromethyl)pyridin-2-amine]
3900 nM	810 nM	CN1CCOc2c(Cl)c(-c3c(F)ccc4cnn(C)c34)cc3nc(OC[C@@]45CCCN4C[C@H](F)C5)nc1c23 [Example 8, 8-chloro-9-(6-fluoro-1-methyl-1H-indazol-7-yl)-2-(((2R,7aS)-2-fluorotetrahydro-1H-pyrrolizin-7a(5H)-yl)methoxy)-4-methyl-5,6-dihydro-4H-[1,4]oxazepino[5,6,7-de]quinazoline]
63000 nM	10000 nM	Cc1cc(N)nc(-c2cc3ncnc4c3c(c2Cl)OCCN4Cc2cncc(O)c2)c1C(F)(F)F [Example 9, 5-((9-(6-amino-4-methyl-3-(trifluoromethyl)pyridin-2-yl)-8-chloro-5,6-dihydro-4H-[1,4]oxazepino[5,6,7-de]quinazolin-4-yl)methyl)pyridin-3-ol]
1300 nM	300 nM	Cc1cc(N)nc(-c2cc3nc(OC[C@@]45CCCN4CC(F)(F)C5)nc4c3c(c2Cl)OCCN4C)c1C(F)(F)F [Example 10, (S)-6-(8-chloro-2-((2,2-difluorotetrahydro-1H-pyrrolizin-7a(5H)-yl)methoxy)-4-methyl-5,6-dihydro-4H-[1,4]oxazepino[5,6,7-de]quinazolin-9-yl)-4-methyl-5-(trifluoromethyl)pyridin-2-amine]
14000 nM	1000 nM	Cc1cc(N)nc(-c2cc3ncnc4c3c(c2Cl)OCCN4C2(c3cccnc3N)CC2)c1C(F)(F)F [Example 11, 6-(4-(1-(2-aminopyridin-3-yl)cyclopropyl)-8-chloro-5,6-dihydro-4H-[1,4]oxazepino[5,6,7-de]quinazolin-9-yl)-4-methyl-5-(trifluoromethyl)pyridin-2-amine]
21000 nM	8900 nM	Cc1cc(N)nc(-c2cc3ncnc4c3c(c2Cl)OCCN4Cc2cccc(=O)[nH]2)c1C(F)(F)F [Example 12, 6-((9-(6-amino-4-methyl-3-(trifluoromethyl)pyridin-2-yl)-8-chloro-5,6-dihydro-4H-[1,4]oxazepino[5,6,7-de]quinazolin-4-yl)methyl)pyridin-2(1H)-one]
36000 nM	13000 nM	Cc1cc(N)nc(-c2cc3ncnc4c3c(c2Cl)OCCN4CCC#N)c1C(F)(F)F [Example 13, 3-(9-(6-amino-4-methyl-3-(trifluoromethyl)pyridin-2-yl)-8-chloro-5,6-dihydro-4H-[1,4]oxazepino[5,6,7-de]quinazolin-4-yl)propanenitrile]
200000 nM	21000 nM	Cc1cc(N)nc(-c2cc3ncnc4c3c(c2Cl)OCCN4CCC2COC2)c1C(F)(F)F [Example 14, 6-(8-chloro-4-(2-(oxetan-3-yl)ethyl)-5,6-dihydro-4H-[1,4]oxazepino[5,6,7-de]quinazolin-9-yl)-4-methyl-5-(trifluoromethyl)pyridin-2-amine]
31000 nM	3600 nM	Cc1cc(N)nc(-c2cc3ncnc4c3c(c2Cl)OCCN4C(C)c2cnc[nH]2)c1C(F)(F)F (centres unmarked) [Example 15, 6-(4-(1-(1H-imidazol-5-yl)ethyl)-8-chloro-5,6-dihydro-4H-[1,4]oxazepino[5,6,7-de]quinazolin-9-yl)-4-methyl-5-(trifluoromethyl)pyridin-2-amine]
32000 nM	6900 nM	Cc1cc(N)nc(-c2cc3ncnc4c3c(c2Cl)OCCN4C(C)CO)c1C(F)(F)F (centres unmarked) [Example 16, 2-(9-(6-amino-4-methyl-3-(trifluoromethyl)pyridin-2-yl)-8-chloro-5,6-dihydro-4H-[1,4]oxazepino[5,6,7-de]quinazolin-4-yl)propan-1-ol]
3400 nM	1600 nM	Cc1cc(N)nc(-c2cc3ncnc4c3c(c2Cl)OCCN4C2CCc3ccncc32)c1C(F)(F)F (centres unmarked) [Example 21, 6-(8-chloro-4-(6,7-dihydro-5H-cyclopenta[c]pyridin-7-yl)-5,6-dihydro-4H-[1,4]oxazepino[5,6,7-de]quinazolin-9-yl)-4-methyl-5-(trifluoromethyl)pyridin-2-amine]
43000 nM	11000 nM	Cc1cc(N)nc(-c2cc3ncnc4c3c(c2Cl)OCCN4Cc2ccns2)c1C(F)(F)F [Example 22, 6-(8-chloro-4-(isothiazol-5-ylmethyl)-5,6-dihydro-4H-[1,4]oxazepino[5,6,7-de]quinazolin-9-yl)-4-methyl-5-(trifluoromethyl)pyridin-2-amine]
2000 nM	510 nM	Cc1cc(N)nc(-c2cc3ncnc4c3c(c2Cl)OCCN4Cc2scnc2N)c1C(F)(F)F [Example 25, 5-((9-(6-amino-4-methyl-3-(trifluoromethyl)pyridin-2-yl)-8-chloro-5,6-dihydro-4H-[1,4]oxazepino[5,6,7-de]quinazolin-4-yl)methyl)thiazol-4-amine]
1400 nM	580 nM	Cc1cc(N)nc(-c2cc3ncnc4c3c(c2Cl)OCCN4C(C)(C)c2cccnc2N)c1C(F)(F)F [Example 27, 6-(4-(2-(2-aminopyridin-3-yl)propan-2-yl)-8-chloro-5,6-dihydro-4H-[1,4]oxazepino[5,6,7-de]quinazolin-9-yl)-4-methyl-5-(trifluoromethyl)pyridin-2-amine]
7400 nM	7400 nM	CSc1cncc(CN2CCOc3c(Cl)c(-c4nc(N)cc(C)c4C(F)(F)F)cc4ncnc2c34)c1 [Example 29, 6-(8-chloro-4-((5-(methylthio)pyridin-3-yl)methyl)-5,6-dihydro-4H-[1,4]oxazepino[5,6,7-de]quinazolin-9-yl)-4-methyl-5-(trifluoromethyl)pyridin-2-amine]
